Our source for the IC50, EC50 and inhibition values is US20070072897A1, “Phenylaminopropanol derivatives and methods of their use” (Wyeth, priority 2005, published 2007).

The IC50 is the concentration that gives 50% inhibition. In general, EC50 refers to the midpoint of the concentration-response curve. A word on the inhibition: it is the percentage by which the read-out fell short of the control.

For assay [1], the target named is T1, human 5-HT2A receptor (Homo sapiens, UniProt P28223).
T1 construct: expressed in transfected cells; host or cells: CHO
T1 sequence (P28223 whole entry): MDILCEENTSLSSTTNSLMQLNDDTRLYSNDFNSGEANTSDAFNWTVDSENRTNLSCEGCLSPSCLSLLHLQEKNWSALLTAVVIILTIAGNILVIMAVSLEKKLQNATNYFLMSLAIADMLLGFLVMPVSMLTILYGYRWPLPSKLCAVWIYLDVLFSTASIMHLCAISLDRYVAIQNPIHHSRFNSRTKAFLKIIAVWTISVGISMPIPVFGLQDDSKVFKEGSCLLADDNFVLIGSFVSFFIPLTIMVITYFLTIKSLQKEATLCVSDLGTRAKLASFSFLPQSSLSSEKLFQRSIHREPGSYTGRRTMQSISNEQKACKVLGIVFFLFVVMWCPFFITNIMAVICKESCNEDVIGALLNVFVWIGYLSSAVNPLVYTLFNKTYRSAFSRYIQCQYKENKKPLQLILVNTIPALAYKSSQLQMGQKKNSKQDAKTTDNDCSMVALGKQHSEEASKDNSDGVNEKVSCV
Put plainly: 5-HT2A FLIPR assay (calcium response to DOI) in CHO cells. Format: cell-based. The note with it: for IC50: antagonist inhibition of 3 nM DOI stimulation, CHO cells, FLIPR; for inhibition at 1 µM: CHO, read-out: 5-HT2A Percentage inhibition at 1 μM. The procedure: Cells are washed with PBS without Ca^2+ and 3 mL Trypsin is added to dissociate cells. After 3 minute incubation, 7 mL Trypsin Neutralizing Solution is added. Cells are then aspirated from flask and mixed in a 50 mL conical tube. 10 μL sample is used to count cells on a hemacytometer. […] Two 96-well drug plates are prepared for each cell plate. Plate 1 will contain compounds to be tested and plate 2 will contain the agonist DOI (3 nM) to activate a calcium response. Specific details of compound preparation are listed below. […] Outside wells are not used due to an edge effect seen in these cells. The reference compounds DOI and 5-HT are used as standard 5HT agonists. […] Standards for plate one are Vehicle, 1 μM DOI, and 3 nM MDL. […] On the day of the assay, test compound solutions of appropriate concentrations are diluted in assay buffer as described for single concentration testing. This procedure is followed to ensure that the solvent concentration is consistent across dilutions. The typical concentration testing range of compounds is 10^−10—10^−5 M in half log or full log increments. A 10 μM DOI stock is diluted to 60 nM and added to the respective wells. The pipeting station of the FLIPR will make an additional 20-fold dilution for a final concentration of 3 nM. Standards for this plate include Vehicle and 3 nM DOI. Contents of dye vial (Molecular Devices #R8090) are dissolved in 100 mL of 1×HBSS supplemented with 20 mM HEPES. Aliquots can be frozen at −20° C. for up to one week for future use. On the day of assay, dye is thawed and diluted to half concentration. […] Cells are allowed to adhere for 24 hours in 96-well plates. […] Cell, compound and DOI plates are loaded into the FLIPR machine. The baseline fluorescence level is read once every second for 1 minute. Compound (10 μL) is transferred from the compound plate to the cells and the fluorescence level recorded every 6 seconds for 2 minutes to determine any agonist activity. Baseline fluorescence is recorded again every second for 10 seconds. For antagonist determination, 10 μL of 3 nM DOI is transferred from the DOI plate to the cells and the fluorescence level recorded every 6 seconds for 5 minutes. The pipetting unit of the FLIPR machine completes all transfers. […] The data are log transformed prior to analysis.

Assay [2] concerns the target T2, human hNET (Homo sapiens, UniProt P23975).
T2 construct: expressed in transfected cells; host or cells: MDCK (MDCK-Net6)
Kind of assay: Norepinephrine (NE) uptake assay in MDCK-Net6 cells. It is filed as cell-based. Conditions: [3H]NE uptake; for EC50: MDCK-Net6 cells stably transfected with hNET; for inhibition at 1 µM: MDCK-Net6 cells, read-out: hNET Percentage inhibition at 1 μM. As to the method:
Cells were plated at 300,000/T75 flask and cells were split twice weekly. […] Cells were plated at 250,000 cells/T75 flask and split twice weekly.
Norepinephrine (NE) Uptake Assay
On day 1, cells were plated at 3,000 cells/well in growth medium and maintained in a cell incubator (37° C., 5% CO2). On day 2, growth medium was replaced with 200 μl of assay buffer (25 mM HEPES; 120 mM NaCl; 5 mM KCl; 2.5 mM CaCl2; 1.2 mM MgSO4; 2 mg/ml glucose (pH 7.4, 37° C.)) containing 0.2 mg/ml ascorbic acid and 10 μM pargyline. Plates containing cells with 200 μl of assay buffer were equilibrated for 10 minutes at 37° C. prior to addition of compounds. A stock solution of desipramine was prepared in DMSO (10 mM) and delivered to triplicate wells containing cells for a final test concentration of 1 μM. Data from these wells were used to define non-specific NE uptake (minimum NE uptake). Test compounds were prepared in DMSO (10 mM) and diluted in assay buffer according to test range (1 to 10,000 nM). Twenty-five microliters of assay buffer (maximum NE uptake) or test compound were added directly to triplicate wells containing cells in 200 μl of assay buffer. The cells in assay buffer with test compounds were incubated for 20 minutes at 37° C. […] The reaction was terminated by decanting the supernatant from the plate. The plates containing cells were washed twice with 200 μl assay buffer (37° C.) to remove free radioligand. The plates were then inverted, left to dry for 2 minutes, then reinverted and air-dried for an additional 10 minutes. […] After cell lysis, 75 μl of scintillation cocktail was added to each well and the plates were sealed with film tape. The plates were returned to the shake table and vigorously shaken for a minimum of 10 minutes to ensure adequate partitioning of organic and aqueous solutions. The plates were counted in a Wallac Microbeta counter (PerkinElmer) to collect the raw cpm data.
For each experiment, a data stream of cpm values collected from the Wallac Microbeta counter was downloaded to a Microsoft Excel statistical application program. Calculations of EC50 values were made using the transformed-both-sides logistic dose response program written by Wyeth Biometrics Department.

Where a name gives a salt, the structure may show the parent alone.

T2 sequence (P23975 whole entry): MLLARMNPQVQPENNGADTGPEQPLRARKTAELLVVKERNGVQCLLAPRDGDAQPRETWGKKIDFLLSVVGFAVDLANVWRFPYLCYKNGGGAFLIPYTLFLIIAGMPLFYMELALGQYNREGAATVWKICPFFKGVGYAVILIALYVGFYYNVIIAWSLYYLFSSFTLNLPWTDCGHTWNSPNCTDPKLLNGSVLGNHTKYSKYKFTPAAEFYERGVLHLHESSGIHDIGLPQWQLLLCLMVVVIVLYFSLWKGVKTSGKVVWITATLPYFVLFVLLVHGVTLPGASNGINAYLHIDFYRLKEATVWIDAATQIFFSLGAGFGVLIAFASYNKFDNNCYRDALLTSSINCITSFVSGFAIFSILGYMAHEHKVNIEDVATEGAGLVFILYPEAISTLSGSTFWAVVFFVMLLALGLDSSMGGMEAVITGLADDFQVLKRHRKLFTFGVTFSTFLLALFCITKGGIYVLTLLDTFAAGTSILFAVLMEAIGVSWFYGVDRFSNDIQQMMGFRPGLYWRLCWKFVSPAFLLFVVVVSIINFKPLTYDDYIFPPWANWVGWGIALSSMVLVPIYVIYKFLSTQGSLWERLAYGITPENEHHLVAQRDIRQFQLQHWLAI

Turning to `CNC[C@@H](O)[C@H](c1ccccc1)n1ccc2cc(OC(C)c3ccccc3)ccc21` (mixture of isomers) [Example 17, (1S,2R)-3-(methylamino)-1-phenyl-1-[5-(1RS)-(1-phenylethoxy)-1H-indol-1-yl]propan-2-ol hydrochloride], the IC50 in assay [1] turned out to be 2640 nM. The EC50 in assay [2] was found to be 873 nM. For `CNC[C@@H](O)[C@H](c1ccccc1)n1ccc2cc(OCc3ccccc3)ccc21` [Example 1, (1S,2R)-1-[5-(benzyloxy)-1H-indol-1-yl]-3-(methylamino)-1-phenylpropan-2-ol hydrochloride], in assay [1], the IC50 was determined as 234 nM. Also, the EC50 in assay [2] came out at 18 nM. Consider `CNC[C@@H](O)[C@H](c1ccccc1)n1ccc2c(OCc3ccccc3)cccc21` [Example 2, (1S,2R)-1-[4-(benzyloxy)-1H-indol-1-yl]-3-(methylamino)-1-phenylpropan-2-ol hydrochloride], for which, in assay [1], the inhibition at 1 µM was 29%. In assay [2], this compound yielded a concentration for a half-maximal effect (EC50) of 310 nM.

In the case of `CNC[C@@H](O)[C@H](c1ccccc1)n1ccc2ccc(OCc3ccccc3)cc21` [Example 3, (1S,2R)-1-[6-(benzyloxy)-1H-indol-1-yl]-3-(methylamino)-1-phenylpropan-2-ol hydrochloride], the inhibition at 1 µM in assay [1] was 39%; in assay [2], 2%. Regarding `CNC[C@@H](O)[C@H](c1ccccc1)n1ccc2cccc(OCc3ccccc3)c21` [Example 4, (1S,2R)-1-[7-(benzyloxy)-1H-indol-1-yl]-3-(methylamino)-1-phenylpropan-2-ol hydrochloride], the IC50 in assay [1] stood at 1470 nM. Further, in assay [2], the inhibition at 1 µM is 20%. In assay [2], `CNC[C@@H](O)[C@H](c1cccc(Cl)c1)N1C(=O)C(C)(C)c2cccc(F)c21` [Example 69, 1-[(1S,2R)-1-(3-chlorophenyl)-2-hydroxy-3-(methylamino)propyl]-7-fluoro-3,3-dimethyl-1,3-dihydro-2H-indol-2-one hydrochloride] returned an EC50 of 92 nM. The compound `CNC[C@@H](O)[C@H](c1cc(F)cc(Cl)c1)n1ccc2ccccc21` [Example 70, (1S,2R)-1-(3-chloro-5-fluorophenyl)-1-(1H-indol-1-yl)-3-(methylamino)propan-2-ol hydrochloride] came in with a concentration for a half-maximal effect (EC50) in assay [2] of 62 nM. For `CNC[C@@H](O)[C@H](c1ccccc1)n1ccc2cc(OCc3ccccn3)ccc21` [Example 92, (1S,2R)-3-(methylamino)-1-phenyl-1-[5-(pyridin-2-ylmethoxy)-1H-indol-1-yl]propan-2-ol hydrochloride], in assay [2], the half-maximal effective concentration (EC50) was found to be 9 nM.

The compound `CNC[C@@H](O)[C@H](c1cccc(F)c1)N1C(=O)C2(CCCCC2)c2cccc(F)c21` [Example 110, 7′-fluoro-1′-[(1S,2R)-1-(3-fluorophenyl)-2-hydroxy-3-(methylamino)propyl]spiro[cyclohexane-1,3′-indol]-2′(1′H)-one hydrochloride] gave an EC50 in assay [2] of 6 nM. Turning to `CNC[C@@H](O)[C@H](c1cccc(Cl)c1)N1C(=O)C2(CCCCC2)c2ccc(F)cc21` [Example 111, 1′-[(1S,2R)-1-(3-chlorophenyl)-2-hydroxy-3-(methylamino)propyl]-6′-fluorospiro[cyclohexane-1,3′-indol]-2′(1′H)-one hydrochloride], in assay [2], the half-maximal effective concentration (EC50) was 186 nM. In assay [2], `CNC[C@@H](O)[C@H](c1cc(F)cc(Cl)c1)N1C(=O)C(C)(C)c2cccc(F)c21` [Example 112, 1-[(1S,2R)-1-(3-chloro-5-fluorophenyl)-2-hydroxy-3-(methylamino)propyl]-7-fluoro-3,3-dimethyl-1,3-dihydro-2H-indol-2-one hydrochloride] returned an EC50 of 2 nM. Still for that read-out and setting: for `CNC[C@@H](O)[C@H](c1cc(F)cc(Cl)c1)N1CCc2ccccc21` [Example 113, (1S,2R)-1-(3-chloro-5-fluorophenyl)-1-(2,3-dihydro-1H-indol-1-yl)-3-(methylamino)propan-2-ol hydrochloride] the value was 33 nM; for `CNC[C@@H](O)[C@H](c1cc(F)cc(Cl)c1)N1CC(C)(C)c2cccc(F)c21` [Example 114, (1S,2R)-1-(3-chloro-5-fluorophenyl)-1-(7-fluoro-3,3-dimethyl-2,3-dihydro-1H-indol-1-yl)-3-(methylamino)propan-2-ol hydrochloride], 166 nM; for `CNC[C@@H](O)[C@H](c1cc(F)cc(Cl)c1)N1CC(C)(C)c2ccccc21` [Example 115, (1S,2R)-1-(3-chloro-5-fluorophenyl)-1-(3,3-dimethyl-2,3-dihydro-1H-indol-1-yl)-3-(methylamino)propan-2-ol hydrochloride], 133 nM. Regarding `CNC[C@@H](O)[C@H](c1cccc(F)c1)N1C(=O)C2(CCC2)c2cccc(F)c21` [Example 116, 7′-fluoro-1′-[(1S,2R)-1-(3-fluorophenyl)-2-hydroxy-3-(methylamino)propyl]spiro[cyclobutane-1,3′-indol]-2′(1′H)-one hydrochloride], a half-maximal response in assay [2] (EC50) required 10 nM. This EC50 lies about 13-fold lower than the previous one. For `CNC[C@@H](O)[C@H](c1cccc(F)c1)N1C(=O)C2(CCCC2)c2cccc(F)c21` [Example 117, 7′-fluoro-1′-[(1S,2R)-1-(3-fluorophenyl)-2-hydroxy-3-(methylamino)propyl]spiro[cyclopentane-1,3′-indol]-2′(1′H)-one hydrochloride], a half-maximal response in assay [2] (EC50) required 2 nM. Compared with the last compound, the EC50 is about 5-fold lower.

In turn, `CNC[C@@H](O)[C@H](c1cccc(F)c1)N1C(=O)C(C)(C)c2ccc(F)cc21` [Example 118, 6-fluoro-1-[(1S,2R)-1-(3-fluorophenyl)-2-hydroxy-3-(methylamino)propyl]-3,3-dimethyl-1,3-dihydro-2H-indol-2-one hydrochloride] returned an EC50 in assay [2] of 40 nM. With `CNC[C@@H](O)[C@H](c1ccccc1)N1CCc2cccc(F)c21` [Example 119, (1S,2R)-1-(7-Fluoro-2,3-dihydro-1H-indol-1-yl)-3-(methylamino)-1-phenylpropan-2-ol hydrochloride], in assay [2], the midpoint of the response, the EC50, lay at 39 nM. On to `CNC[C@@H](O)[C@H](c1cccc(F)c1)n1c(=O)n(-c2ccccc2)c2cccc(F)c21` [Example 120, 4-fluoro-3-[(1S,2R)-1-(3-fluorophenyl)-2-hydroxy-3-(methylamino)propyl]-1-phenyl-1,3-dihydro-2H-benzimidazol-2-one hydrochloride], for which a half-maximal effect in assay [2] (EC50) was put at 92 nM. Regarding `CNC[C@@H](O)[C@H](c1cccc(F)c1)n1c(=O)n(-c2cccc(F)c2)c2cccc(F)c21` [Example 121, 4-fluoro-1-(3-fluorophenyl)-3-[(1S,2R)-1-(3-fluorophenyl)-2-hydroxy-3-(methylamino)propyl]-1,3-dihydro-2H-benzimidazol-2-one hydrochloride], in assay [2], the concentration giving a half-maximal response (EC50) is 189 nM. Same read-out and setting: for `CC1(C)C(=O)N([C@@H](c2cc(F)cc(F)c2)[C@H](O)CN)c2c(F)cccc21` [Example 122, 1-[(1S,2R)-3-amino-1-(3,5-difluorophenyl)-2-hydroxypropyl]-7-fluoro-3,3-dimethyl-1,3-dihydro-2H-indol-2-one] the value was 207 nM.
